The test system of this experiment is C57BL/6 mice, intracerebral ependymoblastoma, median survival T/C. Kind of experiment: NCI In Vivo Anticancer Drug Screen. Data for tumor model Ependymoblastoma (intracerebral) in C57BL/6 mice. The note with it: endpoint: median survival time, higher = longer survival. The protocol:
The antitumor activity of compounds was measured in mice bearing transplantable tumors. Survival or tumor size were measured and the results are expressed as the measurement made in the treated group (T) divided by the measurement made in the vehicle treated control group (C). The tumor model used in this assay is Ependymoblastoma (intracerebral) in C57BL/6 mice

Values joined by “and” are separate entries in the source; they are usually repeats but may differ in a detail not shown here. Equal entries are not always repeated. Inconclusive results and toxic doses are left out.

As for `CN(C)CCCNc1c2ccccc2nc2cccc([N+](=O)[O-])c12`, the T/C is 99 % of control (dose: 0.01 mg/kg/injection, schedule: Q## X006 (ip), vehicle: saline); 101 % of control (dose: 0.03 mg/kg/injection, schedule: Q01DX001 (ip), vehicle: saline); 94 % of control (dose: 0.03 mg/kg/injection, schedule: Q## X006 (ip), vehicle: saline); 92 % of control (dose: 0.06 mg/kg/injection, schedule: Q01DX001 (ip), vehicle: saline); 99 % of control and 100 % of control and 102 % of control (dose: 0.06 mg/kg/injection, schedule: Q01DX005 (ip), vehicle: saline); 101 % of control and 117 % of control (dose: 0.06 mg/kg/injection, schedule: Q#A X002 (ip), vehicle: saline). Moreover, the T/C reads like this: (dose: 0.12 mg/kg/injection, schedule: Q01DX001 (ip), vehicle: saline) 92 % of control; (dose: 0.12 mg/kg/injection, schedule: Q01DX005 (ip), vehicle: saline) 98 % of control; (dose: 0.12 mg/kg/injection, schedule: Q#A X002 (ip), vehicle: saline) 106 % of control and 111 % of control; (dose: 0.13 mg/kg/injection, schedule: Q01DX005 (ip), vehicle: saline) 94 % of control; (dose: 0.25 mg/kg/injection, schedule: Q01DX001 (ip), vehicle: saline) 91 % of control; (dose: 0.25 mg/kg/injection, schedule: Q#A X002 (ip), vehicle: saline) 88 % of control and 101 % of control. The T/C (dose: 0.5 mg/kg/injection, schedule: Q01DX001 (oral), vehicle: saline) was 95 % of control; the T/C (dose: 0.5 mg/kg/injection, schedule: Q#A X002 (ip), vehicle: saline) is 94 % of control and 100 % of control; the T/C (dose: 1.0 mg/kg/injection, schedule: Q01DX001 (oral), vehicle: suspension in saline) was 100 % of control; the T/C (dose: 1.0 mg/kg/injection, schedule: Q#A X002 (ip), vehicle: saline) was 87 % of control and 91 % of control; the T/C (dose: 2.0 mg/kg/injection, schedule: Q01DX001 (ip), vehicle: saline) was 89 % of control; the T/C (dose: 2.0 mg/kg/injection, schedule: Q01DX001 (oral), vehicle: saline) is 104 % of control. The T/C reads like this: (dose: 2.0 mg/kg/injection, schedule: Q01DX001 (oral), vehicle: suspension in saline) 100 % of control; (dose: 2.0 mg/kg/injection, schedule: Q#A X002 (ip), vehicle: saline) 87 % of control; (dose: 4.0 mg/kg/injection, schedule: Q01DX001 (ip), vehicle: saline) 87 % of control; (dose: 4.0 mg/kg/injection, schedule: Q01DX001 (oral), vehicle: suspension in saline) 91 % of control; (dose: 8.0 mg/kg/injection, schedule: Q01DX001 (oral), vehicle: saline) 96 % of control; (dose: 8.0 mg/kg/injection, schedule: Q01DX001 (oral), vehicle: suspension in saline) 96 % of control. Further, the T/C is 91 % of control (dose: 16.0 mg/kg/injection, schedule: Q01DX001 (oral), vehicle: suspension in saline); 97 % of control (dose: 3.9 micrograms/kg/injection, schedule: Q## X006 (ip), vehicle: saline); 103 % of control (dose: 7.8 micrograms/kg/injection, schedule: Q01DX005 (ip), vehicle: saline); 97 % of control (dose: 7.8 micrograms/kg/injection, schedule: Q## X006 (ip), vehicle: saline); 110 % of control (dose: 15.6 micrograms/kg/injection, schedule: Q01DX005 (ip), vehicle: saline); 92 % of control (dose: 15.6 micrograms/kg/injection, schedule: Q## X006 (ip), vehicle: saline). In addition, the T/C by setting is: (dose: 16.0 micrograms/kg/injection, schedule: Q01DX005 (ip), vehicle: saline) 102 % of control and 113 % of control; (dose: 31.2 micrograms/kg/injection, schedule: Q## X006 (ip), vehicle: saline) 95 % of control; (dose: 32.0 micrograms/kg/injection, schedule: Q01DX005 (ip), vehicle: saline) 104 % of control and 111 % of control; (dose: 62.5 micrograms/kg/injection, schedule: Q01DX005 (ip), vehicle: saline) 107 % of control and 109 % of control; (dose: 62.5 micrograms/kg/injection, schedule: Q## X006 (ip), vehicle: saline) 97 % of control; (dose: 63.0 micrograms/kg/injection, schedule: Q01DX005 (ip), vehicle: saline) 103 % of control and 105 % of control.
Take `OCCN1CCN(CC/C=C2/c3ccccc3Sc3ccc(C(F)(F)F)cc32)CC1`: the T/C reads like this: (dose: 12.5 mg/kg/injection, schedule: Q04DX003 (ip), vehicle: saline) 115 % of control; (dose: 25.0 mg/kg/injection, schedule: Q04DX003 (ip), vehicle: saline) 117 % of control.
On to `Nc1ccnc(=O)[nH]1`, for which the T/C (dose: 64.0 mg/kg/injection, schedule: Q01DX005 (ip), vehicle: saline with Tween-80) is 95 % of control; the T/C (dose: 128.0 mg/kg/injection, schedule: Q01DX005 (ip), vehicle: saline with Tween-80) is 90 % of control; the T/C (dose: 256.0 mg/kg/injection, schedule: Q01DX005 (ip), vehicle: saline with Tween-80) was 104 % of control; the T/C (dose: 512.0 mg/kg/injection, schedule: Q01DX005 (ip), vehicle: saline with Tween-80) was 87 % of control; the T/C (dose: 1024.0 mg/kg/injection, schedule: Q01DX005 (ip), vehicle: saline with Tween-80) was 107 % of control.
Consider `CCC1=C[C@H]2CN(CCc3c([nH]c4ccccc34)[C@@](C(=O)OC)(c3cc4c(cc3OC)N(C)[C@H]3[C@@](O)(C(=O)NC)[C@H](OC(C)=O)[C@]5(CC)C=CCN6CC[C@]43[C@@H]65)C2)C1`, for which the T/C is, setting by setting: (dose: 0.05 mg/kg/injection, schedule: Q01DX005 (ip), vehicle: Klucel (hydroxypropylcellulose) (HPC)) 105 % of control; (dose: 0.1 mg/kg/injection, schedule: Q01DX005 (ip), vehicle: Klucel (hydroxypropylcellulose) (HPC)) 98 % of control; (dose: 0.2 mg/kg/injection, schedule: Q01DX005 (ip), vehicle: Klucel (hydroxypropylcellulose) (HPC)) 107 % of control; (dose: 0.4 mg/kg/injection, schedule: Q01DX005 (ip), vehicle: Klucel (hydroxypropylcellulose) (HPC)) 103 % of control; (dose: 0.8 mg/kg/injection, schedule: Q01DX005 (ip), vehicle: Klucel (hydroxypropylcellulose) (HPC)) 93 % of control.
`Nc1ccc(S(N)(=O)=O)cc1`: the T/C by setting is: (dose: 45.0 mg/kg/injection, schedule: Q01DX005 (ip), vehicle: saline with Tween-80) 97 % of control; (dose: 90.0 mg/kg/injection, schedule: Q01DX005 (ip), vehicle: saline with Tween-80) 88 % of control; (dose: 180.0 mg/kg/injection, schedule: Q01DX005 (ip), vehicle: saline with Tween-80) 96 % of control; (dose: 360.0 mg/kg/injection, schedule: Q01DX005 (ip), vehicle: saline with Tween-80) 100 % of control; (dose: 720.0 mg/kg/injection, schedule: Q01DX005 (ip), vehicle: saline with Tween-80) 90 % of control.
Regarding `c1cc2n(n1)CCN2`, the T/C was 108 % of control (dose: 32.0 mg/kg/injection, schedule: Q01DX005 (ip), vehicle: saline); 100 % of control (dose: 64.0 mg/kg/injection, schedule: Q01DX005 (ip), vehicle: saline); 102 % of control (dose: 128.0 mg/kg/injection, schedule: Q01DX005 (ip), vehicle: saline).
Take `NNC(=O)c1ccncc1`: the T/C is, setting by setting: (dose: 28.75 mg/kg/injection, schedule: Q01DX005 (ip), vehicle: saline) 94 % of control; (dose: 57.5 mg/kg/injection, schedule: Q01DX005 (ip), vehicle: saline) 102 % of control; (dose: 115.0 mg/kg/injection, schedule: Q01DX005 (ip), vehicle: saline) 105 % of control.
Consider `CO[C@H]1C[C@@H]2CC[C@@H](C)[C@@](O)(O2)C(=O)C(=O)N2CCCC[C@H]2C(=O)O[C@H]([C@H](C)C[C@@H]2CC[C@@H](O)[C@H](OC)C2)CC(=O)[C@H](C)C=C(C)[C@@H](O)[C@@H](OC)C(=O)[C@H](C)C[C@H](C)/C=C/C=C/C=C1C`, for which the T/C is 111 % of control (dose: 3.12 mg/kg/injection, schedule: Q01DX009 (ip), vehicle: saline with Tween-80); 120 % of control (dose: 6.25 mg/kg/injection, schedule: Q01DX009 (ip), vehicle: saline with Tween-80); 157 % of control (dose: 100.0 mg/kg/injection, schedule: Q01DX009 (ip), vehicle: saline with Tween-80); 92 % of control (dose: 200.0 mg/kg/injection, schedule: Q01DX009 (ip), vehicle: saline with Tween-80).
On to `O=C(CCBr)N1CCN(C(=O)CCBr)CC1`, for which the T/C is 98 % of control (dose: 2.5 mg/kg/injection, schedule: Q01DX005 (ip), vehicle: saline with Tween-80); 103 % of control (dose: 5.0 mg/kg/injection, schedule: Q01DX005 (ip), vehicle: saline with Tween-80); 92 % of control (dose: 10.0 mg/kg/injection, schedule: Q01DX005 (ip), vehicle: saline with Tween-80); 105 % of control (dose: 20.0 mg/kg/injection, schedule: Q01DX005 (ip), vehicle: saline with Tween-80); 105 % of control (dose: 40.0 mg/kg/injection, schedule: Q01DX005 (ip), vehicle: saline with Tween-80); 111 % of control (dose: 80.0 mg/kg/injection, schedule: Q01DX005 (ip), vehicle: saline with Tween-80).

Source of the values: PubChem BioAssay AID222 (DTP/NCI, 2004).
